Source: paper PMC9961069 (Metabolites, 2023)

What was measured:
[1] = test system: T1, DHFR in MDA-MB-468 lysates; test: Lysate cellular thermal shift assay (CETSA) for DHFR; type: binding, Human; conditions: 10 μM, MDA-MB-468 lysate, 45 °C for 3 min, DMSO at 37 °C = 100%
T1 construct: reactions containing 55 μg MDA-MB-468 lysate; endogenous in cells; host or cells: MDA-MB-468
Procedure: Trypsinized MDA-MB-468 cells were harvested by centrifugation at 200× g for 5 min and washed with PBS supplemented with EDTA-free PIC (Roche) and flash frozen for storage at −80 °C. Cells were lysed by resuspension in 60 μL PBS/PIC per 1 × 10^6 cells. Cells were lysed by three freeze-thaw cycles, where cells were frozen in an ethanol/dry ice bath for 3 min, immediately followed by incubation in a 37 °C water bath for 3 min. The insoluble fraction was removed by centrifugation at 20,000× g for 20 min at 4 °C. The supernatant containing the soluble lysate was removed and saved for subsequent steps.
After incubation, each reaction was transferred to a 1.5 mL tube and centrifuged at 20,000× g for 20 min at 4 °C to remove the insoluble proteins. After centrifugation, 18 μL of supernatant was carefully removed from each reaction, without disturbing any pelleted aggregates, and added to 4.5 μL of 5× SDS-PAGE loading buffer. 11 μL of each reaction was loaded onto a gel in duplicate, and proteins were detected by Western blot (as described below). Resulting band densities were fit to the Boltzmann equation to determine the melting temperature (Tm):(3) y=Bottom+Top−Bottom/1+e^Tm−x/Slope
To rescue the thermal degradation of DHFR by inhibitors, samples containing 10 μM inhibitor, 55 μg lysate, and 1% DMSO in a total volume of 28 μL in DHFR buffer were prepared in PCR tubes and incubated at room temperature for 20 min. Two DMSO-only controls were also prepared. Reactions containing inhibitors were then incubated at 45 °C for 3 min. One DMSO-only control was also heated at 45 °C for 3 min, and the other control was heated at 37 °C for 3 min. The soluble protein fraction was separated from the insoluble proteins by centrifugation, and proteins were separated by SDS-PAGE, as described above, and analyzed via Western blot, as described below. Each experiment was repeated 3 times.
Proteins were electrophoretically separated on a 10% gel, and proteins were transferred to a methanol-activated PVDF membrane using the Trans-Blot Turbo transfer system (Bio-Rad) for 7 min at 1.3 A and 25 V in Trans-Blot Turbo transfer buffer (Bio-Rad). Membranes were blocked with 5% skim milk w/v in TBS-T (20 mM Tris, 150 mM NaCl, 0.05% Tween-20) for 1 h at room temperature. […] The horseradish peroxidase (HRP)-linked anti-mouse IgG secondary antibody (NA931, Cytiva; 1:3000) was added for 1 h at room temperature in 5% skim milk w/v in TBS-T. Signal was detected by adding Immobilon Forte Western HRP Substrate (Millipore), and chemiluminescence was captured on a Sapphire Biomolecular Imager (Azure Biosystems). Band densities were determined using ImageJ (Fiji). The band intensity of DHFR was normalized to the thermostable loading control SOD1 [22].

MDA-MB-231 cells [2] = test: LC/MS-based metabolite profiling; type: cell-based, Human; conditions: 24 h
Procedure: For characterization by mass spectrometry, MDA-MB-231 cells were seeded at a density of 3 × 10^5 cells per well in 6-well plates. […] DMSO only and DMSO + folinic acid controls were also performed. Per condition, biological quadruplicates of approximately one million cells were harvested, washed briefly with 1 mL of 0.9% NaCl (prepared in LC/MS-grade water Fisher Scientific W6500), and extracted in 500 μL prechilled extraction buffer (80% LC/MS-grade methanol, 20% 125 mM ammonium acetate, 12.5 mM sodium ascorbate prepared in LC/MS-grade water and supplemented with aminopterin (catalog no.: 16.330; Schircks Laboratories) and isotopically labeled internal standards (17 amino acids and reduced glutathione [Cambridge Isotope Laboratories; MSK- A2-1.2 and CNLM-6245-10])) using a cell scraper. After centrifugation for 10 min, 4 °C, at maximum speed on a benchtop centrifuge (Eppendorf), the cleared supernatant was transferred to a new tube and dried using a nitrogen dryer (Reacti-Vap™ Evaporator, Thermo Fisher Scientific, TS-18826) while on ice. Once the drying process was completed, samples were reconstituted in 50 µL QReSS water (Cambridge Isotope Laboratories, MSK-QRESS-KIT) by brief sonication in a 4 °C water bath. Extracted metabolites were spun for 3 min, 4 °C, at maximum speed on a bench-top centrifuge, and cleared supernatant was transferred to LC/MS microvials (National Scientific, C5000-45B). Three microliters of each sample were pooled and serially diluted 3- and 10-fold to be used as quality controls throughout the run of each batch. Unlabeled QReSS metabolites (Cambridge Isotope Laboratories, MSK-QReSS-US-KIT) and unlabeled amino acid mix standard (Cambridge Isotope Laboratories, MSK-A2-US-1.2) were also included in the run to ensure high-quality metabolomics results.
One microliter (equivalent to 2 × 10^4 cells) of the reconstituted sample was injected into a ZIC-pHILIC 150 × 2.1 mm (5 µm particle size) column (EMD Millipore) operated on a Vanquish™ Flex UHPLC Systems (Thermo Fisher Scientific, San Jose, CA, USA). Chromatographic separation was achieved using the following conditions: buffer A was acetonitrile; buffer B was 20 mM ammonium carbonate, 0.1% ammonium hydroxide. Gradient conditions were: linear gradient from 20% to 80% B; 20–20.5 min: from 80% to 20% B; 20.5–28 min: hold at 20% B. The column oven and autosampler tray were held at 25 °C and 4 °C, respectively.
Mass spectrometry data acquisition was performed using a QExactive benchtop orbitrap mass spectrometer equipped with an Ion Max source and a HESI II probe (Thermo Fisher Scientific, San Jose, CA, USA) and was performed in positive and negative ionization mode in a range of m/z = 70–1000, with the resolution set at 70,000, the AGC target at 1 × 10^6, and the maximum injection time (Max IT) at 20 msec. For nucleotide tSIM scans, the resolution was set at 70,000, the AGC target was 1 × 10^5, and the max IT was 100 msec.
Manual curation and integration of chromatographic peaks were performed with TraceFinder 4.1 (Thermo Fisher Scientific, Waltham, MA, USA) using a 5 ppm mass tolerance and referencing an in-house library of chemical standards. Data from TraceFinder were further consolidated and normalized with an in-house R script: (https://github.com/FrozenGas/KanarekLabTraceFinderRScripts/blob/main/MS_data_script_v2.4_20221018.R (accessed on 22 November 2022)). Briefly, this script performs normalization and quality control steps: (1) extracts and combines the peak areas from TraceFinder output .csvs; (2) calculates and normalizes to an averaged factor from all mean-centered chromatographic peak areas of isotopically labeled amino acids internal standards within each sample; (3) filters out low-quality metabolites based on user inputted cut-offs calculated from pool reinjections and pool dilutions; (4) calculates and normalizes for biological material amounts based on the total integrated peak area values of high-confidence metabolites. […]

[3] = test system: STAT3 transcriptional activity in U3A STAT3 luciferase reporter cell line; test: STAT3 luciferase reporter assay; type: cell-based; conditions: 0.02–20 μM, OSM 10 ng/mL
Procedure: The STAT3-dependent luciferase reporter assay was performed as previously reported. One day prior to the assay, the U3A STAT3 luciferase reporter cell line was seeded in a 96-well plate at 8000 cells per well. Cells were then incubated with compounds at the indicated concentration, and each well was treated with either media control or stimulated with 10 ng/mL oncostatin M (OSM) and incubated for six hours at 37 °C. Luciferase activity was quantified using the Bright-Glo Luciferase Assay system (Promega) and a Luminoskan Ascent Luminometer (Labsystems). Collected luminescence readings were normalized to DMSO-treated controls. Stimulation with (+OSM) gave luminescence values around 2.5 times that of the unstimulated control (−OSM). Quadruplicates were averaged and plotted with error bars representing standard deviation. Each condition was performed in quadruplicate on two separate occasions (n = 2) with representative data shown. Statistical significance was determined using Ordinary one-way ANOVA with a Dunnett multiple comparison test.

purified human DHFR = molecular target: T2, purified human DHFR (Homo sapiens, UniProt P00374); test: DHFR enzymatic inhibition assay (NADPH absorbance at 340 nm); type: biochemical; conditions: 200 nM DHFR, 137.5 μM DHF, 125 μM NADPH; n = 2; read-out: IC50
T2 construct: made in house; host or cells: E. coli BL21 (DE3) T1R pRARE2, pNIC-Bsa4 plasmid
T2 sequence (P00374 1-187): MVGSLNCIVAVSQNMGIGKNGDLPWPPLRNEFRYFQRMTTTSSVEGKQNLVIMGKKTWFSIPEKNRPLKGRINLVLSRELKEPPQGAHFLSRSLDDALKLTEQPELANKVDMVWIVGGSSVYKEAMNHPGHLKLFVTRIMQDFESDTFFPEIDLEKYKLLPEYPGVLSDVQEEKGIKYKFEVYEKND
Procedure: Working stocks of each inhibitor were created so that the final concentration of DMSO in each reaction was 2% in a final reaction volume of 100 μL. […] Reactions were prepared on ice in 384-well plates. […] Consumption of NADPH by measuring absorbance at 340 nm was used to monitor the progress of the reaction. Readings were taken every 5 min for 1 h at 37 °C using a Synergy MX microplate reader (BioTek).
Percent inhibition relative to the no-inhibitor control was determined using Equation (1). (1) % Inhibition=A340Inhibitor−A340DMSO Control/A340No DHFR−A340DMSO Control×100
Percent inhibition data were then fit to the four-parameter logistic model (Equation (2)) in GraphPad Prism 9.4.1 to determine half-maximal inhibitory concentrations (IC50):(2) y=Bottom+Top−Bottom/1+IC50/x^Hill slope where y represents the percent inhibition, x represents the concentration of inhibitor (μM), the bottom and top represent the bottom and top plateaus, and the Hill slope represents the slope factor. Each experiment contained duplicates of each sample, and each experiment was performed 2 times (n = 2). An ordinary one-way ANOVA was used to test for statistical significance between treatments.

MCF-7 cells = test: Resazurin viability assay with or without folinic acid, MCF-7; type: cell-based, Human; conditions: 72 h; for Relative Viability (%) – Inhibitor + FA Treatment: MCF-7, 10 μM + 300 μg/mL folinic acid; for Relative Viability (%) – Inhibitor Alone: MCF-7, 10 μM, relative to DMSO; for Rescue of viability impairment by folinic acid: MCF-7, 10 μM ± 300 μg/mL FA
Procedure: (§1) The incorporation and metabolism of resazurin to resorufin was used to monitor cell viability. MDA-MB-468, MCF7, and MDA-MB-231 cells were grown in 96-well plates with a total of 5000 cells per well in a total volume of 180 μL for 24 h, as described above. After 24 h of growth, cells were treated with increasing concentrations of compounds (0.0457–100 μM) for 72 h. A vehicle control was also performed. […] The volume of treatment added to each well was 20 μL. For folinic acid rescue experiments, 5000 cells were treated with 10 μM compound with or without 300 μg/mL folinic acid (Supelco). After 72 h of treatment, resazurin was added to a final concentration of 44 μM, and cells were incubated for an additional 4 h at 37 °C. The fluorescence of resorufin was monitored on a Synergy MX microplate reader (BioTek) using an excitation wavelength of 540 nm and an emission wavelength of 600 nm. Percent viability relative to the DMSO control was determined. Each treatment was performed in triplicate, and each individual experiment was repeated three times (n = 3).

MDA-MB-231 cells [4] = test: Resazurin viability assay with or without folinic acid, MDA-MB-231; type: cell-based, Human; conditions: 72 h; for Relative Viability (%) – Inhibitor + FA Treatment: MDA-MB-231, 10 μM + 300 μg/mL folinic acid; for Relative Viability (%) – Inhibitor Alone: MDA-MB-231, 10 μM, relative to DMSO
Procedure: as §1

MDA-MB-468 cells = test: Resazurin viability assay with or without folinic acid, MDA-MB-468; type: cell-based, Human; conditions: 72 h; for Relative Viability (%) – Inhibitor + FA Treatment: MDA-MB-468, 10 μM + 300 μg/mL folinic acid; for Relative Viability (%) – Inhibitor Alone: MDA-MB-468, 10 μM, relative to DMSO
Procedure: as §1

SMILES | Normalized Band Density (%) of soluble DHFR [1] | Normalized Band Density (%) of soluble DHFR ([1]; listed as Methotrexate) | Orotate levels with FA supplementation (MDA-MB-231 cells [2]; 10 μM + 300 μg/mL FA) | AICAR levels (MDA-MB-231 cells [2]; 10 μM, inhibitor alone) | Orotate levels (MDA-MB-231 cells [2]; 10 μM, inhibitor alone) | UDP level (MDA-MB-231 cells [2]; 10 μM, inhibitor alone versus DMSO) | Inhibition of STAT3-dependent luciferase activity [3] | IC50 (purified human DHFR) | Relative Viability (%) – Inhibitor + FA Treatment (MCF-7 cells) | Relative Viability (%) – Inhibitor Alone (MCF-7 cells) | Relative Viability (%) – Inhibitor + FA Treatment (MDA-MB-231 cells [4]) | Relative Viability (%) – Inhibitor Alone (MDA-MB-231 cells [4]) | Relative Viability (%) – Inhibitor + FA Treatment (MDA-MB-468 cells) | Relative Viability (%) – Inhibitor Alone (MDA-MB-468 cells) | Rescue of viability impairment by folinic acid (MCF-7 cells) | Rescue of viability impairment by folinic acid (MDA-MB-231 cells [4]; MDA-MB-231, 10 μM ± 300 μg/mL FA) | Rescue of viability impairment by folinic acid (MDA-MB-468 cells; MDA-MB-468, 10 μM ± 300 μg/mL FA)
CN(Cc1cnc2nc(N)nc(N)c2n1)c1ccc(C(=O)N[C@@H](CCC(=O)O)C(=O)O)cc1 [MTX, methotrexate] | greater than 100% | 123.37 ± 73.5% | returned orotate to vehicle control levels | failed to increase AICAR levels in a statistically significant manner | decreased or statistically insignificant changes in orotate levels | not upon treatment with MTX and 127159 alone | potent inhibition of luciferase activity | – | – | – | – | – | – | – | – | – | –
CCc1nc(N)nc(N)c1-c1ccc(Cl)c(Cl)c1 [compound 3062, etoprine] | 83.56 ± 52.1% | – | – | – | – | – | – | 8.6 ± 2.7 µM | 100.10 ± 8.2% | 65.16 ± 9.0% | 65.52 ± 15.0% | 52.76 ± 12.1% | 81.08 ± 13.2% | 65.38 ± 1.3% | – | – | –
CC1(C)N=C(N)N=C(N)N1c1ccc(Cl)c(Cl)c1 [compound 3077] | – | – | – | – | – | – | – | – | – | – | – | – | – | – | small yet statistically significant rescue | – | –
CCS(=O)(=O)O.CN(C)C(=O)c1cccc(COc2ccc(N3C(N)=NC(N)=NC3(C)C)cc2Cl)c1 [compound 139105, triazinate] | 86.05 ± 21.9% | – | – | – | – | – | – | – | 82.83 ± 9.7% | 66.53 ± 8.1% | 65.85 ± 13.7% | 46.35 ± 9.0% | 81.38 ± 16.9% | 57.09 ± 8.0% | not rescued | not rescued | statistically significant rescue
